Tests used:
Type in all cases: cell-based
human CFTR mutant R1070W = target: T1, human CFTR mutant R1070W (Homo sapiens, UniProt P13569, R1070W); assay: FRT cell Ussing chamber chloride transport assay; details: FRT cells expressing R1070W CFTR
T1 construct: expressed in transfected cells; host or cells: Fisher rat thyroid (FRT) FlpIn cells, pcDNA5/FRT
From the text: (§1) DNA cloning: Wild-type CFTR coding region was inserted into pcDNA5/FRT (Invitrogen, San Diego, Calif.) between EcoRV and ApaI.
(§2) Single CFTR gene mutations were introduced into the wild-type CFTR coding sequence by using QuickChange XL site-directed mutagenesis kit (Stratagene, Cambridge, UK). The CFTR coding region as well as its promoter sequence and 3′ untranslated sequence was fully sequenced to confirm the mutagenesis reaction.
(§3) The CFTR gene was stably expressed in Fisher rat thyroid (FRT) cells through FlpIn system. The FRT-FlpIn host cell line was generated by stably transfecting FRT cells with pFRT/lacZeo. The single integration of a FRT site was confirmed by Southern blot. After the mutant CFTR DNA was transfected into the FRT-FlpIn host cell line, the cells were incubate at 37° C. in Coon's modified Ham's F12 containing 10% FBS, 1% Pen/Strep, and 36 ml of Na− Bicarbonate for up to 8 passages under hygromycin selection (200 ug/ml).
(§4) All cells were grown on Costar® Snapwell™ cell culture inserts at maintained at 37° C. prior to recording. The cell culture inserts were mounted into an Ussing chamber (VCC MC8; Physiologic Instruments, Inc., San Diego, Calif.) to record ISC in the voltage-clamp mode (Vhold=0 mV). For FRT cells, the basolateral membrane was permeabilized with 360 μg/ml Nystatin and a basolateral to apical Cl− gradient was established. The basolateral bath solution contained (in mM); 135 NaCl, 1.2 CaCl2, 1.2 MgCl2, 2.4 K2HPO4, 0.6 KHPO4, 10 N-2-hydroxyethylpiperazine-N′-2-ethanesulfonic acid (HEPES), and 10 dextrose (titrated to pH 7.4 with NaOH). The apical NaCl was replaced by equimolar Na+ gluconate (titrated to pH 7.4 with NaOH). For HBE cells, the ISC was measured in the presence of a basolateral to apical Cl− gradient. The normal Cl− solution contained (in mM) 145 NaCl, 3.3 K2HPO4, 1.2 MgCl2, 1.2 CaCl2, 10 Glucose, 10 HEPES (pH adjusted to 7.35 with NaOH) and the low Cl− solution contained (in mM) 145 NaGluconate, 1.2 MgCl2, 1.2 CaCl2, 10 glucose, 10 HEPES (pH adjusted to 7.35 with NaOH). All recordings were digitally acquired using a Acquire and Analyze software (version 2; Physiologic Instruments, Inc. San Diego, Calif.).
(§5) The 10 μM forskolin stimulated response in FRT cell expressing different mutant CFTR forms or in HBE cells isolated from CF patients was normalized to the 10 μM forskolin-stimulated response in FRT cells expressing wild-type CFTR or in HBE isolated from non-CF individuals and expressed as % wild-type CFTR. In HBE, amiloride was added prior to forskolin application to block the epithelial Na+ channel.

human CFTR mutant G551S = target: T2, human CFTR mutant G551S (Homo sapiens, UniProt P13569, G551S); assay: FRT cell Ussing chamber chloride transport assay; details: FRT cells expressing G551S CFTR
T2 construct: expressed in transfected cells; host or cells: Fisher rat thyroid (FRT) FlpIn cells, pcDNA5/FRT
From the text: as §1, §2, §3, §4, §5

human CFTR mutant G970R = target: T3, human CFTR mutant G970R (Homo sapiens, UniProt P13569, G970R); assay: FRT cell Ussing chamber chloride transport assay; details: FRT cells expressing G970R CFTR
T3 construct: expressed in transfected cells; host or cells: Fisher rat thyroid (FRT) FlpIn cells, pcDNA5/FRT
From the text: as §1, §2, §3, §4, §5

human CFTR mutant D110E = target: T4, human CFTR mutant D110E (Homo sapiens, UniProt P13569, D110E); assay: FRT cell Ussing chamber chloride transport assay; details: FRT cells expressing D110E CFTR
T4 construct: expressed in transfected cells; host or cells: Fisher rat thyroid (FRT) FlpIn cells, pcDNA5/FRT
From the text: as §1, §2, §3, §4, §5

human CFTR mutant D110H = target: T5, human CFTR mutant D110H (Homo sapiens, UniProt P13569, D110H); assay: FRT cell Ussing chamber chloride transport assay; details: FRT cells expressing D110H CFTR
T5 construct: expressed in transfected cells; host or cells: Fisher rat thyroid (FRT) FlpIn cells, pcDNA5/FRT
From the text: as §1, §2, §3, §4, §5

human CFTR mutant R347H = target: T6, human CFTR mutant R347H (Homo sapiens, UniProt P13569, R347H); assay: FRT cell Ussing chamber chloride transport assay; details: FRT cells expressing R347H CFTR
T6 construct: expressed in transfected cells; host or cells: Fisher rat thyroid (FRT) FlpIn cells, pcDNA5/FRT
From the text: as §1, §2, §3, §4, §5

human CFTR mutant G1349D = target: T7, human CFTR mutant G1349D (Homo sapiens, UniProt P13569, G1349D); assay: FRT cell Ussing chamber chloride transport assay; details: FRT cells expressing G1349D CFTR
T7 construct: expressed in transfected cells; host or cells: Fisher rat thyroid (FRT) FlpIn cells, pcDNA5/FRT
From the text: as §1, §2, §3, §4, §5

human CFTR mutant S549R = target: T8, human CFTR mutant S549R (Homo sapiens, UniProt P13569, S549R); assay: FRT cell Ussing chamber chloride transport assay; details: FRT cells expressing S549R CFTR
T8 construct: expressed in transfected cells; host or cells: Fisher rat thyroid (FRT) FlpIn cells, pcDNA5/FRT
From the text: as §1, §2, §3, §4, §5

human CFTR mutant F1074L = target: T9, human CFTR mutant F1074L (Homo sapiens, UniProt P13569, F1074L); assay: FRT cell Ussing chamber chloride transport assay; details: FRT cells expressing F1074L CFTR
T9 construct: expressed in transfected cells; host or cells: Fisher rat thyroid (FRT) FlpIn cells, pcDNA5/FRT
From the text: as §1, §2, §3, §4, §5

human CFTR mutant G1244E = target: T10, human CFTR mutant G1244E (Homo sapiens, UniProt P13569, G1244E); assay: FRT cell Ussing chamber chloride transport assay; details: FRT cells expressing G1244E CFTR
T10 construct: expressed in transfected cells; host or cells: Fisher rat thyroid (FRT) FlpIn cells, pcDNA5/FRT
From the text: as §1, §2, §3, §4, §5

human CFTR mutant S945L = target: T11, human CFTR mutant S945L (Homo sapiens, UniProt P13569, S945L); assay: FRT cell Ussing chamber chloride transport assay; details: FRT cells expressing S945L CFTR
T11 construct: expressed in transfected cells; host or cells: Fisher rat thyroid (FRT) FlpIn cells, pcDNA5/FRT
From the text: as §1, §2, §3, §4, §5

human CFTR mutant L206W = target: T12, human CFTR mutant L206W (Homo sapiens, UniProt P13569, L206W); assay: FRT cell Ussing chamber chloride transport assay; details: FRT cells expressing L206W CFTR
T12 construct: expressed in transfected cells; host or cells: Fisher rat thyroid (FRT) FlpIn cells, pcDNA5/FRT
From the text: as §1, §2, §3, §4, §5

ΔF508-CFTR = target: T13, ΔF508-CFTR (Homo sapiens, UniProt P13569, DEL508-508); assay: Membrane potential optical assay for ΔF508-CFTR potentiation (FLIPR III); details: relative efficacy; ΔF508-CFTR NIH 3T3 cells
T13 construct: expressed in transfected cells; host or cells: NIH3T3 mouse fibroblasts
From the text: The assay utilizes fluorescent voltage sensing dyes to measure changes in membrane potential using a fluorescent plate reader (e.g., FLIPR III, Molecular Devices, Inc.) as a readout for increase in functional ΔF508-CFTR in NIH 3T3 cells. The driving force for the response is the creation of a chloride ion gradient in conjunction with channel activation by a single liquid addition step after the cells have previously been treated with compounds and subsequently loaded with a voltage sensing dye. To identify potentiators of ΔF508-CFTR, a double-addition HTS assay format was developed. This HTS assay utilizes fluorescent voltage sensing dyes to measure changes in membrane potential on the FLIPR III as a measurement for increase in gating (conductance) of ΔF508 CFTR in temperature-corrected ΔF508 CFTR NIH 3T3 cells. The driving force for the response is a Cl^− ion gradient in conjunction with channel activation with forskolin in a single liquid addition step using a fluorescent plate reader such as FLIPR III after the cells have previously been treated with potentiator compounds (or DMSO vehicle control) and subsequently loaded with a redistribution dye. Bath Solution #1: (in mM) NaCl 160, KCl 4.5, CaCl2 2, MgCl2 1, HEPES10, pH 7.4 with NaOH. Chloride-free bath solution: Chloride salts in Bath Solution #1 (above) are substituted with gluconate salts. […]

T5 sequence (P13569 whole entry D110H): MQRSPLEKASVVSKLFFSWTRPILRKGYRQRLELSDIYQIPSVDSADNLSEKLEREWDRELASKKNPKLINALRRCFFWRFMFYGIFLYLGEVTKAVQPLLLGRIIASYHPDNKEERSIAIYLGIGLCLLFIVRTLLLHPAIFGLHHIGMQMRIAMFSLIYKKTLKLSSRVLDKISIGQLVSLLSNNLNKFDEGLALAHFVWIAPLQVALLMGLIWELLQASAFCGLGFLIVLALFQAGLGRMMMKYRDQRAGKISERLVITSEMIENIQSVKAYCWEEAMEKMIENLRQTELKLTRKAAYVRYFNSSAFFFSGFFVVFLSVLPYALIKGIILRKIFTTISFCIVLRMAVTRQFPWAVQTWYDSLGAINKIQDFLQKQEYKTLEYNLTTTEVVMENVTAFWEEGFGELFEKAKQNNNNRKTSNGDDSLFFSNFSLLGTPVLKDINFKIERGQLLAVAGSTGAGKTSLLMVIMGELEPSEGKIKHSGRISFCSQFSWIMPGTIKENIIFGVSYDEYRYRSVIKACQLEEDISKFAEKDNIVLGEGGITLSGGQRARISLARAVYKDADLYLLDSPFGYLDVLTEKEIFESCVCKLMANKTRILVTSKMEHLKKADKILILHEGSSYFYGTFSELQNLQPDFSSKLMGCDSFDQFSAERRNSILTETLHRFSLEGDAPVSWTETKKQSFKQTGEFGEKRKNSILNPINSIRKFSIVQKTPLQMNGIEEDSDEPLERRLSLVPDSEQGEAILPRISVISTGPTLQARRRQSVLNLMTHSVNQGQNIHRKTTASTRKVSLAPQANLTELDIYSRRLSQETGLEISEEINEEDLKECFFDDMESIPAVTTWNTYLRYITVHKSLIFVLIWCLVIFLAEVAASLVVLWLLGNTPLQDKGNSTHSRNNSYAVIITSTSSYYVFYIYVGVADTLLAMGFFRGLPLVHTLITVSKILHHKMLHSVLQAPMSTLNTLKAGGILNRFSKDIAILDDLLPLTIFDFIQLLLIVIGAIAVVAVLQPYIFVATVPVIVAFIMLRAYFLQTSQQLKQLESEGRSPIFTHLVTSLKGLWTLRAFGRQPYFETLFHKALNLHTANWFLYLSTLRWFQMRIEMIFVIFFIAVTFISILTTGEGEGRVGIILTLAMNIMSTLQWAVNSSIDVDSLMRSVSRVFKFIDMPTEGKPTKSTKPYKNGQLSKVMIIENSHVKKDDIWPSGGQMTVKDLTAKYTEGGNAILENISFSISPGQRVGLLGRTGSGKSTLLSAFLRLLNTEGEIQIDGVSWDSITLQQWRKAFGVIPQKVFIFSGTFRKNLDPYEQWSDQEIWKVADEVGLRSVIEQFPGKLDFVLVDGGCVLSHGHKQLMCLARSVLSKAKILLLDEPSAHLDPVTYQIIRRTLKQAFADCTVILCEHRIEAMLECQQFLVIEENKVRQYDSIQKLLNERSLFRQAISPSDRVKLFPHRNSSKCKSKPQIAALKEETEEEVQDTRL
T7 sequence (P13569 whole entry G1349D): as the sequence (P13569 whole entry D110H) above, with H110D, G1349D counted along it
T1 sequence (P13569 whole entry R1070W): as the sequence (P13569 whole entry D110H) above, with H110D, R1070W counted along it
T4 sequence (P13569 whole entry D110E): as the sequence (P13569 whole entry D110H) above, with H110E counted along it
T12 sequence (P13569 whole entry L206W): as the sequence (P13569 whole entry D110H) above, with H110D, L206W counted along it
T9 sequence (P13569 whole entry F1074L): as the sequence (P13569 whole entry D110H) above, with H110D, F1074L counted along it
T13 sequence (P13569 with tags, fused parts or gaps DEL508-508): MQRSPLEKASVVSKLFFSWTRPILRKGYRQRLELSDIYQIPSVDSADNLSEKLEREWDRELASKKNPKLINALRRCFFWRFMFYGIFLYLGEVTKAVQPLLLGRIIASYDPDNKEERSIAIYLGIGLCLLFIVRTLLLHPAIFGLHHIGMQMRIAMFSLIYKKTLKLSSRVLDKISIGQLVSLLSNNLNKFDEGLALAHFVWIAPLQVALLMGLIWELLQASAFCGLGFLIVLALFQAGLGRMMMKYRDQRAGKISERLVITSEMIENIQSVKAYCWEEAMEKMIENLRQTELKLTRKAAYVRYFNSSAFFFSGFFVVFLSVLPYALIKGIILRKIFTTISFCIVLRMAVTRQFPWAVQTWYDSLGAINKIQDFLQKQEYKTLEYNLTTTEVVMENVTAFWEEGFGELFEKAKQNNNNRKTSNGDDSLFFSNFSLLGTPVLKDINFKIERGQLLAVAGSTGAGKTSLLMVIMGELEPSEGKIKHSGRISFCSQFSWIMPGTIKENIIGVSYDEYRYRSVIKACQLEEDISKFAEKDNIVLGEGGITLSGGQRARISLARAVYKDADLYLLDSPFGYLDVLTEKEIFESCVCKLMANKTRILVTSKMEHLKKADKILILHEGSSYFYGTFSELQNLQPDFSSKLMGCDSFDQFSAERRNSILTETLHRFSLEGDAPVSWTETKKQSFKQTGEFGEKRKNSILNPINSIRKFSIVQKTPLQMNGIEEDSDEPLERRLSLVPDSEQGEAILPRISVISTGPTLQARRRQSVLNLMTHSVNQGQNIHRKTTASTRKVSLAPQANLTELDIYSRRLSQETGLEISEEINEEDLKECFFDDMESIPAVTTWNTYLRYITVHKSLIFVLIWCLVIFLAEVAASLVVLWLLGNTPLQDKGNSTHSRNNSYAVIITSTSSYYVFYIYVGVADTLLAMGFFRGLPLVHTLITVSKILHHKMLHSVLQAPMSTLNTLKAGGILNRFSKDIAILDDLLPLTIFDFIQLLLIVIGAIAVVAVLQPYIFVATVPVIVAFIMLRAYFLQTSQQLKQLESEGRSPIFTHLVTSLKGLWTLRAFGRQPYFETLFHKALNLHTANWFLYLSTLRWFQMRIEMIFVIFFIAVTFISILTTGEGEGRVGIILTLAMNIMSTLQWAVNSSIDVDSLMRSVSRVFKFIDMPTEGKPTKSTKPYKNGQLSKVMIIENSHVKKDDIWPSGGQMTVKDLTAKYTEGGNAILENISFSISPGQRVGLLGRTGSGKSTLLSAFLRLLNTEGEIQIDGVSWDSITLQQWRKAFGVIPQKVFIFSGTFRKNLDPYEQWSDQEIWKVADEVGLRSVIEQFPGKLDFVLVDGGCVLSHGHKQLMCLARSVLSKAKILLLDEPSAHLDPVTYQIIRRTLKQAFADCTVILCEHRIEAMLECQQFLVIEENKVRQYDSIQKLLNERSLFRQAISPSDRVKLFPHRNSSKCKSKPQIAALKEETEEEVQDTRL
T2 sequence (P13569 whole entry G551S): as the sequence (P13569 whole entry D110H) above, with H110D, G551S counted along it
T3 sequence (P13569 whole entry G970R): as the sequence (P13569 whole entry D110H) above, with H110D, G970R counted along it
T11 sequence (P13569 whole entry S945L): as the sequence (P13569 whole entry D110H) above, with H110D, S945L counted along it
T10 sequence (P13569 whole entry G1244E): as the sequence (P13569 whole entry D110H) above, with H110D, G1244E counted along it
T6 sequence (P13569 whole entry R347H): as the sequence (P13569 whole entry D110H) above, with H110D, R347H counted along it
T8 sequence (P13569 whole entry S549R): as the sequence (P13569 whole entry D110H) above, with H110D, S549R counted along it

Question: Which “increase in chloride transport, relative to baseline chloride transport” value (human CFTR mutant R1070W) does the source give for CC(C)(C)c1cc(C(C)(C)C)c(NC(=O)c2c[nH]c3ccccc3c2=O)cc1O [Compound 1, N-[2,4-bis(1,1-dimethylethyl)-5-hydroxyphenyl]-1,4-dihydro-4-oxoquinoline-3-carboxamide] here?
Answer: greater than or equal to 10%

Question: And the “increase in chloride transport, relative to baseline chloride transport” value (human CFTR mutant G551S)?
Answer: greater than 10 fold

Question: What about the “increase in chloride transport, relative to baseline chloride transport” value (human CFTR mutant G970R) of the same compound?
Answer: greater than 10 fold

Question: And the “increase in chloride transport, relative to baseline chloride transport” value (human CFTR mutant D110E)?
Answer: greater than or equal to 10%

Question: What about the “increase in chloride transport, relative to baseline chloride transport” value (human CFTR mutant D110H) of the same compound?
Answer: greater than or equal to 10%

Question: And the “increase in chloride transport, relative to baseline chloride transport” value (human CFTR mutant R347H)?
Answer: greater than or equal to 10%

Question: What about the “increase in chloride transport, relative to baseline chloride transport” value (human CFTR mutant G1349D) of the same compound?
Answer: greater than 10 fold

Question: And the “increase in chloride transport, relative to baseline chloride transport” value (human CFTR mutant S549R)?
Answer: greater than 10 fold

Question: And the “increase in chloride transport, relative to baseline chloride transport” value (human CFTR mutant F1074L)?
Answer: greater than or equal to 10%

Question: And the “increase in chloride transport, relative to baseline chloride transport” value (human CFTR mutant G1244E)?
Answer: greater than 10 fold

Question: What about the “increase in chloride transport, relative to baseline chloride transport” value (human CFTR mutant S945L) of the same compound?
Answer: greater than or equal to 10%

Question: What about the “increase in chloride transport, relative to baseline chloride transport” value (human CFTR mutant L206W) of the same compound?
Answer: greater than or equal to 10%

Question: What about the “% Activity” value (ΔF508-CFTR) of the same compound?
Answer: ++ (“++” means between 25% to 100%)
